Experimental data published in patent US9884828B2, “Substituted cinnolines as inhibitors of LRRK2 kinase activity” (Imago Pharmaceuticals, Inc., priority 2011, dated 2018).
Like-named read-outs stand apart in the source and are kept apart here.

Target: recombinant GST-LRRK2 (wild-type) (Homo sapiens (Human), UniProt Q5S007)
Test: LRRK2 TR-FRET peptide assay (in vitro kinase activity), wild-type
Type: biochemical
Procedure: Compounds as described herein (compounds of Formula I, e.g., compounds of the above Examples) are tested for their in vitro kinase activities using various LRRK2 (including LRRK2 G2019S mutant) assays. […] Serially diluted compounds (1% DMSO as co-solvent) were pre-incubated with recombinant GST-LRRK2 (wild-type, or G2019S mutant, Invitrogen) for 15 minutes at room temperature in 384-well Corning black plates. […] The inhibition of each well was calculated using the control and background readings for that plate. IC50 values were determined from dose-response curves using eight concentrations from the serial dilution of the test compounds.

[1] = 100 μM ATP, 100 nM biotin-LRRKtide substrate, 10 nM kinase, 60 minutes at room temperature

Chain of recombinant GST-LRRK2 (wild-type) (Q5S007 whole entry): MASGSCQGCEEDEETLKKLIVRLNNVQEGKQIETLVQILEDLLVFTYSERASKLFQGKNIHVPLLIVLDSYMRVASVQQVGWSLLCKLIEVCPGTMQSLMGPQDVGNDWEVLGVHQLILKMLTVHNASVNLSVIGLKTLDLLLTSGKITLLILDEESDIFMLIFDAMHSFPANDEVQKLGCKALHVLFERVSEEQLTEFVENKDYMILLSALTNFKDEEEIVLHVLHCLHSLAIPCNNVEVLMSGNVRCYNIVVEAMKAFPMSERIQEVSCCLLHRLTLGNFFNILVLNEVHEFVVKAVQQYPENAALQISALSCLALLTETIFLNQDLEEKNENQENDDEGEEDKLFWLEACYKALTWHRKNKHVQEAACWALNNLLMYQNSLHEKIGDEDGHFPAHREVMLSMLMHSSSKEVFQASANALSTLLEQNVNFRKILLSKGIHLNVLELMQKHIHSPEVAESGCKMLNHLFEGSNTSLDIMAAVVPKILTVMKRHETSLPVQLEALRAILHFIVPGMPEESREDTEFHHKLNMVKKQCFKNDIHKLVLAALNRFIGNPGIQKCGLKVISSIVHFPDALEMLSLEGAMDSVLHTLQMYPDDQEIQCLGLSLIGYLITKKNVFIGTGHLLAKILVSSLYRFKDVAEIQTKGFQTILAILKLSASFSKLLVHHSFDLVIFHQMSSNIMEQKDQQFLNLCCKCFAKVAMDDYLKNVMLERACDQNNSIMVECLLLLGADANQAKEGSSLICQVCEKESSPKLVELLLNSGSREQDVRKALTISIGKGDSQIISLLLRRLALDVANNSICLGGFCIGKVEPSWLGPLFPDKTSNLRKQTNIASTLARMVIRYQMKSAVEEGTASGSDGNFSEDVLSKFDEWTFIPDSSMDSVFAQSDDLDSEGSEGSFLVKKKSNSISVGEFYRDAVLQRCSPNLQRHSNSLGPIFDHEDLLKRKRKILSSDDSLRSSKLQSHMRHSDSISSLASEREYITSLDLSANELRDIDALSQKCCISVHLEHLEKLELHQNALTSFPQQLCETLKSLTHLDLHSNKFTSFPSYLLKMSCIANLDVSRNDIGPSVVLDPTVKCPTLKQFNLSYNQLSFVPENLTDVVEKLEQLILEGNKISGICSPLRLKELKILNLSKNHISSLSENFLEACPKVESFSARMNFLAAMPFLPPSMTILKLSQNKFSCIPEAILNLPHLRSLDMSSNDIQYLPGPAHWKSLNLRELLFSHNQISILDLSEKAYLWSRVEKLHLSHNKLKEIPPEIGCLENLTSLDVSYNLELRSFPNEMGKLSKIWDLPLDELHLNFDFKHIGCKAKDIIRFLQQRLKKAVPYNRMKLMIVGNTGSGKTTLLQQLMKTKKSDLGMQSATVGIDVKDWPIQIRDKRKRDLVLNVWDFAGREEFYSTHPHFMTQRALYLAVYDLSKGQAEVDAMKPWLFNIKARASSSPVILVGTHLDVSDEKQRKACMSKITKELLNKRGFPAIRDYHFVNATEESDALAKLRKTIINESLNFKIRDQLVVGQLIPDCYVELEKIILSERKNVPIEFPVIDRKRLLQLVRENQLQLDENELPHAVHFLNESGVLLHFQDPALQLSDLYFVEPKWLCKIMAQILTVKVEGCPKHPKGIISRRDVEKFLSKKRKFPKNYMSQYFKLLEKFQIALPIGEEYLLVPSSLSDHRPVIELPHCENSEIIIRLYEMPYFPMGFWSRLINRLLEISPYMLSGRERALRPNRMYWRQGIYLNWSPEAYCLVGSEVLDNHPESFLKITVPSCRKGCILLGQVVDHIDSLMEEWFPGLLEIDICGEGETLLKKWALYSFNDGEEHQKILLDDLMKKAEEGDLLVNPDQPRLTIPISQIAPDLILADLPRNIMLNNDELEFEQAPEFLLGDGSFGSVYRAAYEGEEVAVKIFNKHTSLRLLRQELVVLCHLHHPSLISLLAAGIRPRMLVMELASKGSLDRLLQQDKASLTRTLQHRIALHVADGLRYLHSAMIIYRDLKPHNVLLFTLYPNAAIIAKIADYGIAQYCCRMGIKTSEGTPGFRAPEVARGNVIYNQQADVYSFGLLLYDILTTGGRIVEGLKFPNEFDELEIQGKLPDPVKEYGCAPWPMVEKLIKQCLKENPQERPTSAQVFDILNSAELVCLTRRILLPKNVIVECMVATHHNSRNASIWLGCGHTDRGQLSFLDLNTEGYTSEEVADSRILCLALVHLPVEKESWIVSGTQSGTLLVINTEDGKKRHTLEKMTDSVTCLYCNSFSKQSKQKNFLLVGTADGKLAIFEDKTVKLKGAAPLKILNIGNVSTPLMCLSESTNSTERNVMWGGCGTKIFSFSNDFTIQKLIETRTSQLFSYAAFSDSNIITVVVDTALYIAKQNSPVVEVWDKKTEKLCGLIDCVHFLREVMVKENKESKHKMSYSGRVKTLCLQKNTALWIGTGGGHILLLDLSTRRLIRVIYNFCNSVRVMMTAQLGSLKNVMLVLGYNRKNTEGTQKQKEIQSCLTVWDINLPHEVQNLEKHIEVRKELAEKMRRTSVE

Structure (SMILES) | IC50 [1] | IC50
C[C@@H](Nc1c(C(N)=O)nnc2cc(-c3cccc4c3NC(=O)C4)ccc12)C1CC1 [Compound 2-121, (R)-4-(1-cyclopropylethylamino)-7-(2-oxoindolin-7-yl)cinnoline-3-carboxamide] | 2 nM | –
C[C@@H](Nc1c(C(N)=O)nnc2cc(-c3ccn(C)c(=O)c3)ccc12)C1CC1 [Compound 2-122, (R)-4-(1-cyclopropylethylamino)-7-(1-methyl-2-oxo-1,2-dihydropyridin-4-yl)cinnoline-3-carboxamide] | 8 nM | –
C[C@@H](Nc1c(C(N)=O)nnc2cc(-c3ccccc3S(C)(=O)=O)ccc12)C1CC1 [Compound 2-123, (R)-4-(1-cyclopropylethylamino)-7-(2-(methylsulfonyl)phenyl)cinnoline-3-carboxamide] | 430 nM | –
CC(C)Nc1c(C(N)=O)nnc2ccc(-c3ccccc3)cc12 [Compound 2-124, 4-(isopropylamino)-6-phenylcinnoline-3-carboxamide] | 630 nM | –
CC(C)Nc1c(C(N)=O)nnc2ccc(-c3ccc(S(C)(=O)=O)cc3)cc12 [Compound 2-125, 4-(isopropylamino)-6-(4-(methylsulfonyl)phenyl)cinnoline-3-carboxamide] | 2900 nM | –
CC(C)Nc1c(C(N)=O)nnc2ccc(-c3ccncc3)cc12 [Compound 2-126, 4-(isopropylamino)-6-(pyridin-4-yl)cinnoline-3-carboxamide] | 30 nM | –
CC(C)Nc1c(C(N)=O)nnc2ccc(-c3cn[nH]c3)cc12 [Compound 2-127, 4-(isopropylamino)-6-(1H-pyrazol-4-yl)cinnoline-3-carboxamide] | < 6 nM | –
CC(C)Nc1c(C#N)nnc2ccc(-c3cn[nH]c3)cc12 [Compound 2-128, 4-(isopropylamino)-6-(1H-pyrazol-4-yl)cinnoline-3-carbonitrile] | 120 nM | –
CC(C)Nc1c(C(N)=O)nnc2ccc(-c3cnn(C)c3)cc12 [Compound 2-129, 4-(isopropylamino)-6-(1-methyl-1H-pyrazol-4-yl)cinnoline-3-carboxamide] | 380 nM | –
CC(C)Nc1c(C(N)=O)nnc2ccc(-c3nccs3)cc12 [Compound 2-130, 4-(isopropylamino)-6-(thiazol-2-yl)cinnoline-3-carboxamide] | 570 nM | –
CC(C)Nc1c(C(N)=O)nnc2ccc(-c3cncs3)cc12 [Compound 2-131, 4-(isopropylamino)-6-(thiazol-5-yl)cinnoline-3-carboxamide] | 110 nM | –
CCC(CC)Nc1c(C(N)=O)nnc2cc(-c3ccncc3)ccc12 [Compound 2-134, 4-(pentan-3-ylamino)-7-(pyridin-4-yl)cinnoline-3-carboxamide] | 26 nM | –
NC(=O)c1nnc2cc(-c3ccncc3)ccc2c1NCCCO [Compound 2-136, 4-(3-hydroxypropylamino)-7-(pyridin-4-yl)cinnoline-3-carboxamide] | 120 nM | –
NC(=O)c1nnc2cc(-c3ccncc3)ccc2c1NCCO [Compound 2-137, 4-(2-hydroxyethylamino)-7-(pyridin-4-yl)cinnoline-3-carboxamide] | 150 nM | –
COc1cc(Br)ccc1-c1ccc(OC)c(-c2ccc3c(N[C@H](C)C4CC4)c(C(N)=O)nnc3c2)c1 [Compound 2-203, (R)-7-(4′-bromo-2′,4-dimethoxybiphenyl-3-yl)-4-(1-cyclopropylethylamino)cinnoline-3-carboxamide] | 8700 nM | –
CCC(C)Sc1c(C(N)=O)nnc2cc(-c3ccc(S(C)(=O)=O)cc3)ccc12 (stereo not drawn) [Compound 2-243, 4-(sec-butylthio)-7-(4-(methylsulfonyl)phenyl)cinnoline-3-carboxamide] | 12000 nM | –
CC(C)Nc1c(I)nnc2cc(-c3ccc(S(C)(=O)=O)cc3)ccc12 [Compound 3-68, 3-iodo-N-isopropyl-7-(4-(methylsulfonyl)phenyl)cinnolin-4-amine] | 950 nM | –
CC(C)Nc1c(-c2cscn2)nnc2cc(-c3ccc(S(C)(=O)=O)cc3)ccc12 [Compound 3-70, N-isopropyl-7-(4-(methylsulfonyl)phenyl)-3-(thiazol-4-yl)cinnolin-4-amine] | > 100000 nM | –
CC(C)Nc1c(-c2ncco2)nnc2cc(-c3ccc(S(C)(=O)=O)cc3)ccc12 [Compound 3-71, N-isopropyl-7-(4-(methylsulfonyl)phenyl)-3-(oxazol-2-yl)cinnolin-4-amine] | > 100000 nM | –
CC(C)Nc1c(-c2cccnc2)nnc2cc(-c3ccc(S(C)(=O)=O)cc3)ccc12 [Compound 3-72, N-isopropyl-7-(4-(methylsulfonyl)phenyl)-3-(pyridin-3-yl)cinnolin-4-amine] | 13000 nM | –
CC(C)Nc1c(Cl)nnc2cc(-c3ccc(S(C)(=O)=O)cc3)ccc12 [Compound 3-84, 3-chloro-N-isopropyl-7-(4-(methylsulfonyl)phenyl) cinnolin-4-amine] | 1600 nM | –
CC(C)Nc1c(-c2nccc(=O)[nH]2)nnc2cc(-c3ccc(S(C)(=O)=O)cc3)ccc12 [Compound 3-187, 2-(4-(isopropylamino)-7-(4-(methylsulfonyl)phenyl)cinnolin-3-yl)pyrimidin-4(3H)-one] | 280 nM | –
CC(C)Nc1c(C(N)=O)nnc2cc(N3CCN(C)CC3)ccc12 [Compound 4-188, 4-(isopropylamino)-7-(4-methylpiperazin-1-yl)cinnoline-3-carboxamide] | – | 53 nM

The next lines start with results.

IC50 [1] | Structure (SMILES) | IC50
490 nM | CC(C)Nc1c(C(N)=O)nnc2cc(Oc3ccccc3)ccc12 [Compound 4-74, 4-(isopropylamino)-7-phenoxycinnoline-3-carboxamide] | –
560 nM | CC(C)Nc1c(C(N)=O)nnc2cc(Sc3ccccc3)ccc12 [Compound 4-76, 4-(isopropylamino)-7-(phenylthio)cinnoline-3-carboxamide] | –
72 nM | CC(C)Nc1c(C(N)=O)nnc2cc(Nc3ccccc3)ccc12 [Compound 4-78, 4-(isopropylamino)-7-(phenylamino)cinnoline-3-carboxamide] | –
31 nM | CC(C)Nc1c(C(N)=O)nnc2cc(-n3cccn3)ccc12 [Compound 4-80, 4-(isopropylamino)-7-(1H-pyrazol-1-yl)cinnoline-3-carboxamide] | –
170 nM | CC(C)Nc1c(C(N)=O)nnc2cc(N3CCCC3=O)ccc12 [Compound 4-85, 4-(isopropylamino)-7-(2-oxopyrrolidin-1-yl)cinnoline-3-carboxamide] | –
68 nM | COc1ccccc1Nc1ccc2c(NC(C)C)c(C(N)=O)nnc2c1 [Compound 4-189, 4-(isopropylamino)-7-(2-methoxyphenylamino)cinnoline-3-carboxamide] | –
31 nM | COc1ncccc1Nc1ccc2c(NC(C)C)c(C(N)=O)nnc2c1 [Compound 4-190, 4-(isopropylamino)-7-(2-methoxypyridin-3-ylamino)cinnoline-3-carboxamide] | –
1300 nM | CC(C)Nc1c(C(N)=O)nnc2ccc(N3CCOCC3)cc12 [Compound 4-191, 4-(isopropylamino)-6-morpholinocinnoline-3-carboxamide] | –
240 nM | COc1cccc(Nc2ccc3c(NC(C)C)c(C(N)=O)nnc3c2)c1 [Compound 4-192, 4-(isopropylamino)-7-(3-methoxyphenylamino)cinnoline-3-carboxamide] | –
13 nM | CC(C)Nc1c(C(N)=O)nnc2cc(-c3cscn3)ccc12 [Compound 5-55, 4-(isopropylamino)-7-(thiazol-4-yl)cinnoline-3-carboxamide] | –
21600 nM | Cc1nnc2cc(-c3ccc(S(C)(=O)=O)cc3)ccc2c1NC(C)C [Compound 6-83, N-isopropyl-3-methyl-7-(4-(methylsulfonyl)phenyl)cinnolin-4-amine] | –
940 nM | CC(C)Nc1c(C(N)=O)nnc2cc(CCO)ccc12 [Compound 7-198, 7-(2-hydroxyethyl)-4-(isopropylamino)cinnoline-3-carboxamide] | –
420 nM | CC(C)Nc1c(-c2nc[nH]n2)nnc2cc(-c3ccc(S(C)(=O)=O)cc3)ccc12 [Compound 8-200, N-Isopropyl-7-(4-(methylsulfonyl)phenyl)-3-(1H-1,2,4-triazol-3-yl)cinnolin-4-amine] | –
54 nM | COc1ccc(N2CCOC2=O)cc1-c1ccc2c(N[C@H](C)C3CC3)c(C(N)=O)nnc2c1 [Compound 9-206, (R)-4-(1-cyclopropylethylamino)-7-(2-methoxy-5-(2-oxooxazolidin-3-yl)phenyl)cinnoline-3-carboxamide] | –
280 nM | COc1ccc(-n2cccn2)cc1-c1ccc2c(N[C@H](C)C3CC3)c(C(N)=O)nnc2c1 [Compound 9-207, (R)-4-(1-cyclopropylethylamino)-7-(2-methoxy-5-(1H-pyrazol-1-yl)phenyl)cinnoline-3-carboxamide] | –
1100 nM | COc1cc(N2CCOC2=O)ccc1-c1ccc(OC)c(-c2ccc3c(N[C@H](C)C4CC4)c(C(N)=O)nnc3c2)c1 [Compound 9-208, (R)-4-(1-cyclopropylethylamino)-7-(2′,4-dimethoxy-4′-(2-oxooxazolidin-3-yl)biphenyl-3-yl)cinnoline-3-carboxamide] | –
63 nM | COc1ccc(N2CCOCC2=O)cc1-c1ccc2c(N[C@H](C)C3CC3)c(C(N)=O)nnc2c1 [Compound 9-209, (R)-4-(1-cyclopropylethylamino)-7-(2-methoxy-5-(3-oxomorpholino)phenyl)cinnoline-3-carboxamide] | –
490 nM | COc1cc(N2CCOCC2=O)ccc1-c1ccc(OC)c(-c2ccc3c(N[C@H](C)C4CC4)c(C(N)=O)nnc3c2)c1 [Compound 9-210, (R)-4-(1-cyclopropylethylamino)-7-(2′,4-dimethoxy-4′-(3-oxomorpholino)biphenyl-3-yl)cinnoline-3-carboxamide] | –
1 nM | C[C@@H](Nc1c(C(N)=O)nnc2cc(-c3ccc(N4CCOC4=O)cc3)ccc12)C1CC1 [Compound 9-213, (R)-4-(1-cyclopropylethylamino)-7-(4-(2-oxooxazolidin-3-yl)phenyl)cinnoline-3-carboxamide] | –
